Literature values as cited in patent US20080255231A1, “POLYMORPHS OF RIVASTIGMINE HYDROGENTARTRATE” (priority 2007, published 2008).

For `CCN(C)C(=O)Oc1cccc([C@H](C)N(C)C)c1` [Rivastigmine hydrogentartrate, [3-[α-(Dimethylamino)-ethyl]phenyl]-N-methylethylcarbamate hydrogentartrate], which solubility in acetonitrile (acetonitrile) is on record?
The solubility in acetonitrile was “soluble”.

What about the solubility in ethanol (ethanol) of the same compound?
The solubility in ethanol was “soluble”.

And the “solubility in ethyl acetate” value (ethyl acetate)?
Its value is “very slightly soluble”.

And the solubility in n-octanol (n-octanol)?
Its solubility in n-octanol is “slightly soluble”.

And the solubility in water (water)?
The solubility in water was “very soluble”.
